Here are results for two compounds from US20240189235A1, “CATIONIC LIPIDS AND USES THEREOF” (MELLO BIOTECH TAIWAN CO., LTD., priority 2022, published 2024).

The test system of this series is Cy5-mir302a-siRNA. As to the kind of experiment: Encapsulation efficiency of LNPs for small RNAs (RiboGreen fluorescence). Conditions: Table 1 in words. It is filed as physicochemical. The protocol:
To produce the present composition, the present cationic lipids (compound 6 or 22), cholesterol, DEG-PEG 2000, and distearoylphosphatidylcholine (DSPC) were fully mixed in ethanol at a molar ratio of 50:38.5:1.5:10, and the total volume was brought to 500 μL, thereby producing a liquid formulation of lipid nanoparticles (LNPs). As for control group, D-lin-MC3-DMA (MC30), an ionizable amino lipid that conventionally used in LNPs preparation, was mixed with cholesterol, DEG-PEG 2000, and DSPC at the same molar ratio as the present LNPs. […]
The encapsulation ratio of liposomes for encapsulating miRNAs or siRNAs was determined by fluorescence reader (Infinite F200 Pro) with the aid of RNA quantification kit containing a fluorescent dye (RiboGreen). […] The cationic lipid-RNA complexes (typically with a total volume of 50 μL for each sample well) were then mixed with the reagent from the RNA quantification kit in each well. […] The amount of miRNAs or siRNAs were quantified by interpolating their […] at 535 nm to that of the standard curve, and the encapsulation efficiency (EE) was calculated by the following formula: […]
where Wt is the total amount of miRNAs or siRNAs released in the LNPs lysis suspension, and Wi is the total quantity of miRNAs or siRNAs added initially during preparation. […]

Turning to `CCCCC/C=C\C/C=C\CCCCCCCC(=O)NCC(=O)OC(COC(=O)CN)COC(=O)CN` [Compound 6, 2-(2-((9Z,12Z)-octadeca-9,12-dienamido)acetoxy)propane-1,3-diyl bis(2-aminoacetate)], the “Liposome formation and siRNA encapsulation” value is “successfully formed liposomes and encapsulated siRNAs therein”.

Regarding `CCCCCC/C=C\CCCCCCCC(=O)NCC(=O)OCC(COC(=O)CN)OC(=O)CNC(=O)CCCCCCC/C=C\CCCCCC` (centres unmarked) [Compound 22, (Z)-3-(2-aminoacetoxy)propane-1,2-diyl bis(2-((Z)-hexadec-9-enamido)acetate)], the “Liposome formation and siRNA encapsulation” value is “successfully formed liposomes and encapsulated siRNAs therein”.
